B1: six-bladed β-propeller domain of DrSOD (DrSOD^β-pro) (domain or fragment, Deinococcus radiodurans, UniProt Q9RYV4 185-462, looked up)
chain: LSVRDYALPGPVDHPEGVAYDAKKGLIYTGSAQNGTIYAINAQSGAVTKFQEGGAYGRQVALGLKVDPQGRLWIAGGAQGTVSILTPDGMTLAVLETPKSPRPYINDLVLAPDGNFYVTDSSRPVIFRVDKALKLTAWLDLAGTPIKYGPGVNLNGIAATPDGKYLLAVQLNTGELWRIDLKTKAVKKVMDGLVNGDGLLLDGRTLYVARNKDQVVAKVSLSADYGSGQLVAQEPLNGLRFPATLAKVGNDLVVTQAQLDRIGGTPETPFKLTRFAKF
notes: β-propeller (SGL) domain of DrSOD (DRA0202), Deinococcus radiodurans, UniProt Q9RYV4, residues Leu185-Phe462; Eluted as a mixture of monomer and dimer; source: E. coli BL21(DE3), purified (cOmplete His-Tag column, HRV3C, gel filtration); not shown: His6, N-terminal, cleaved

Legend:
[1] = target: T1, DrSOD^β-pro (Deinococcus radiodurans, UniProt Q9RYV4); experiment: pH-indicator (p-nitrophenol, […] nm) lactonase assay; type: biochemical; details: pH 7.0, 20 mM CaCl2; 2 mM substrate
T1 construct: gene DR_A0202; C-terminal beta-propeller domain (Leu185-Phe462), N-terminal 6xHis removed with HRV3C, E. coli BL21(DE3), monomer and dimer

[2] = target: the molecule itself; experiment: SEC-MALS; 25 μM protein loaded on a gel filtration column (LW-803, SHODEX); MN buffer (50 mM MOPS, 100 mM NaCl, pH 7.0) for the holo forms, MN buffer with 5 mM EDTA for the metal-free apo state; monomer against dimer

Molecule	pH-indicator (p-nitrophenol, 405 nm) lactonase assay [1]	stoichiometry N [2]
O=C1Cc2ccccc2O1 [2-coumaranone]	lactonase activity of DrSOD toward 2-coumaranone was attributed to DrSOD^β-pro but not DrSOD^SOD	–
B1	–	2
